The source of these data is patent publication US11414416B1, “Compounds and uses thereof” (Foghorn Therapeutics Inc., priority 2019, dated 2022).

Each structure is given as a SMILES string.

Chain of Nanoluciferase-BRD9 fusion protein (Q9H8M2 whole entry, the tested form may be a part): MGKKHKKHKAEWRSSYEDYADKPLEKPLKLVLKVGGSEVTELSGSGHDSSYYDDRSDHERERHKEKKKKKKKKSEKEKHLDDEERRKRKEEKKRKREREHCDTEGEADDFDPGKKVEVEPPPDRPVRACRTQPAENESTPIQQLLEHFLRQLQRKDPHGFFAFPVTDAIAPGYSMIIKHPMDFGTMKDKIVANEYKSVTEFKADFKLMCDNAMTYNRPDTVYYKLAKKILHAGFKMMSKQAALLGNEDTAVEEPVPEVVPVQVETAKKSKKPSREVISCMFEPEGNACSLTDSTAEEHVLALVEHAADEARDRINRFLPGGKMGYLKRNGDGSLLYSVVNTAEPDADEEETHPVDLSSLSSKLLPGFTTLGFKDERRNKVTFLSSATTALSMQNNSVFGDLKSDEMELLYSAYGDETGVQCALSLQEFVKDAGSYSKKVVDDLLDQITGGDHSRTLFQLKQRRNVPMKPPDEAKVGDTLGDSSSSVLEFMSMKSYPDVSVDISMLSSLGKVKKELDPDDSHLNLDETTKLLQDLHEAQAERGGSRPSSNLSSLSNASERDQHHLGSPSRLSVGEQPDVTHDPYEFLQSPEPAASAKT

The test deals with Nanoluciferase-BRD9 fusion protein (Homo sapiens (Human), UniProt Q9H8M2). In words: SYO1 BRD9 NanoLuc degradation assay. It counts as cell-based. Particulars: Table 5A; SYO-1 cells expressing 3×FLAG-NLuc-BRD9, 6 hours; read-out: SYO1 BRD9-NanoLuc degradation IC50. On the procedure:
Procedure: A stable SYO-1 cell line expressing 3×FLAG-NLuc-BRD9 was generated. On day 0 cells were seeded in 30 μL media into each well of 384-well cell culture plates. The seeding density was 8000 cells/well. […] Subsequently plates were incubated for 6 hours in a standard tissue culture incubator and equilibrated at room temperature for 15 minutes. Nanoluciferase activity was measured by adding 15 μL of freshly prepared Nano-Glo Luciferase Assay Reagent (Promega N1130), shaking the plates for 10 minutes and reading the bioluminescence using an EnVision reader.
DMSO treated cells are employed as High Control (HC) and 1 μM of a known BRD9 degrader standard treated cells are employed as Low Control (LC).
Turning to `COc1cc(-c2cn(C)c(=O)c3cnccc23)cc(OC)c1CN1CC[C@H]1C(=O)NCCCCCCCCNc1cccc2c1C(=O)N([C@@H]1CCC(=O)NC1=O)C2=O` (stereo in doubt) [Compound D18, (2S)-1-((2,6-dimethoxy-4-(2-methyl-1-oxo-2,7-naphthyridin-4-yl)phenyl)methy)-N-(8-((2-((R)-2,6-dioxopiperidin-3-yl)-1,3-dioxoisoindol-4-yl)amino)octyl) azetidine-2-carboxamide], the DC50 is less than 10 nM. Under `COc1cc(-c2cc(C)c(=O)n(C)c2)cc(OC)c1CN1CC(C(=O)NCCCCCCCCNc2cccc3c2C(=O)N(C2CCC(=O)NC2=O)C3=O)C1` (stereo not drawn) [Compound D16, 2-(2,6-dihydroxypiperidin-3-yl)-4-[(8-[[hydroxy(1-[[4-(6-hydroxy-1,5-dimethyl-1,6-dihydropyridin-3-yl)-2,6-dimethoxyphenyl]methyl]azetidin-3-yl)methyl]amino]octyl)amino]-2,3-dihydro-1H-isoindole-1,3-diol formic acid] stands less than 10 nM; under `COc1cc(-c2cn(C)c(=O)c3cnccc23)cc(OC)c1CN1CC(N)(C(=O)NCCCCCCCCNc2cccc3c2C(=O)N(C2CCC(=O)NC2=O)C3=O)C1` (stereo not drawn) [Compound D17, 3-amino-1-[[2,6-dimethoxy-4-(2-methyl-1-oxo-1,2-dihydro-2,7-naphthyridin-4-yl)phenyl]methyl]-N-(8-[[2-(2,6-dioxopiperidin-3-yl)-1,3-dioxo-2,3-dihydro-1H-isoindol-4-yl]amino]octyl)azetidine-3-carboxamide], less than 10 nM. As to `COc1cc(-c2cn(C)c(=O)c3cnccc23)cc(OC)c1CN1CC[C@H]1C(=O)NCCCCCCCCNc1cccc2c1C(=O)N([C@H]1CCC(=O)NC1=O)C2=O` [Compound D19, (2S)-1-((2,6-dimethoxy-4-(2-methyl-1-oxo-2,7-naphthyridin-4-yl)phenyl)methyl)-N-(8-((2-((S)-2,6-dioxopiperidin-3-yl)-1,3-dioxoisoindol-4-yl)amino)octyl) azetidine-2-carboxamide], the DC50 was less than 10 nM. With `COc1cc(-c2cn(C)c(=O)c3cnccc23)cc(OC)c1CN1CC2(CC(C(=O)NCCCCCCCCNc3cccc4c3C(=O)N(C3CCC(=O)NC3=O)C4=O)C2)C1` (stereo not drawn) [Compound D20], the DC50 was less than 10 nM. Then `COc1cc(-c2cn(C)c(=O)c3cnccc23)cc(OC)c1CN1CC2(CC(C(=O)NCCCCCCNc3cccc4c3C(=O)N(C3CCC(=O)NC3=O)C4=O)C2)C1` (stereo not drawn) [Compound D21], with greater than 1000 nM; and `COc1cc(-c2cn(C)c(=O)c3cnccc23)cc(OC)c1CN1CC(S(=O)(=O)NCCCCNc2ccc3c(c2)C(=O)N(C2CCC(=O)NC2=O)C3=O)C1` (stereo not drawn) [Compound D22, 1-[[2,6-dimethoxy-4-(2-methyl-1-oxo-1,2-dihydro-2,7-naphthyridin-4-yl)phenyl]methyl]-N-(4-[[2-(2,6-dioxopiperidin-3-yl)-1,3-dioxo-2,3-dihydro-1H-isoindol-5-yl]amino]butyl) azetidine-3-sulfonamide formic acid], with 10 to 100 nM; and `COc1cc(-c2cn(C)c(=O)c3cnccc23)cc(OC)c1CN1CC(S(=O)(=O)NCCN2CCN(c3ccc4c(c3)C(=O)N(C3CCC(=O)NC3=O)C4=O)CC2)C1` (stereo not drawn) [Compound D24, 1-[[2,6-dimethoxy-4-(2-methyl-1-oxo-2,7-naphthyridin-4-yl)phenyl]methyl]-N-(2-[4-[2-(2,6-dioxopiperidin-3-yl)-1,3-dioxoisoindol-5-yl]piperazin-1-yl]ethyl)azetidine-3-sulfonamide formic acid], with 10 to 100 nM.

As to `COc1cc(-c2cn(C)c(=O)c3cnccc23)cc(OC)c1CN1CC(N(C)Cc2cccc3c2C(=O)N(C2CCC(=O)NC2=O)C3=O)C1` (stereo not drawn) [Compound D28, 4-(((1-(2,6-dimethoxy-4-(2-methyl-1-oxo-1,2-dihydro-2,7-naphthyridin-4-yl)benzyl)azetidin-3-yl)(methyl)amino)methyl)-2-(2,6-dioxopiperidin-3-yl)isoindoline-1,3-dione], the DC50 lay in the range of 100 to 1000 nM. Consider `COc1cc(-c2cn(C)c(=O)c3cnccc23)cc(OC)c1CN1CC(C(=O)N(C)Cc2cccc3c2C(=O)N(C2CCC(=O)NC2=O)C3=O)C1` (stereo not drawn) [Compound D29, 1-(2,6-dimethoxy-4-(2-methyl-1-oxo-1,2-dihydro-2,7-naphthyridin-4-yl)benzyl)-N-((2-(2,6-dioxopiperidin-3-yl)-1,3-dioxoisoindolin-4-yl)methyl)-N-methylazetidine-3-carboxamide], for which the DC50 was 10 to 100 nM. In the case of `COc1cc(-c2cn(C)c(=O)c3cnccc23)cc(OC)c1CN1CCC(CCN2CCN(c3ccc4c(c3)C(=O)N(C3CCC(=O)NC3=O)C4=O)CC2)CC1` (stereo not drawn) [Compound D42, 5-(4-(2-(1-(2,6-dimethoxy-4-(2-methyl-1-oxo-1,2-dihydro-2,7-naphthyridin-4-yl)benzyl)piperidin-4-yl)ethyl)piperazin-1-yl)-2-(2,6-dioxopiperidin-3-yl)isoindoline-1,3-dione formic acid], the DC50 was less than 10 nM. Take `COc1cc(-c2cn(C)c(=O)c3cnccc23)cc(OC)c1CN1CC2(CN(CCOc3ccc4c(c3)C(=O)N(C3CCC(=O)NC3=O)C4=O)C2)C1` (stereo not drawn) [Compound D43, 5-[2-(6-[[2,6-Dimethoxy-4-(2-methyl-1-oxo-2,7-naphthyridin-4-yl)phenyl]methyl]-2,6-diazaspiro[3.3]heptan-2-yl)ethoxy]-2-(2,6-dioxopiperidin-3-yl)isoindole-1,3-dione formic acid]: the DC50 lay in the range of 100 to 1000 nM. Take `COc1cc(-c2cn(C)c(=O)c3cnccc23)cc(OC)c1CN1CCN(CCCCCOc2ccc3c(c2)C(=O)N(C2CCC(=O)NC2=O)C3=O)CC1` (stereo not drawn) [Compound D44, 5-((5-(4-(2,6-dimethoxy-4-(2-methyl-1-oxo-1,2-dihydro-2,7-naphthyridin-4-yl)benzyl)piperazin-1-yl)pentyl)oxy)-2-(2,6-dioxopiperidin-3-yl)isoindoline-1,3-dione formic acid]: the DC50 is less than 10 nM. `COc1cc(-c2cn(C)c(=O)c3cnccc23)cc(OC)c1CN1CC(S(=O)(=O)NCCOCCNc2cccc3c2C(=O)N(C2CCC(=O)NC2=O)C3=O)C1` (stereo not drawn) [Compound D45, 1-[[2,6-dimethoxy-4-(2-methyl-1-oxo-2,7-naphthyridin-4-yl)phenyl]methyl]-N-[2-(2-[[2-(2,6-dioxopiperidin-3-yl)-1,3-dioxoisoindol-4-yl]amino]ethoxy)ethyl]azetidine-3-sulfonamide]: the DC50 was less than 10 nM.

On to `COc1cc(-c2cn(C)c(=O)c3cnccc23)cc(OC)c1CN(C)CCOCCN1CCN(c2ccc3c(c2)C(=O)N(C2CCC(=O)NC2=O)C3=O)CC1` (stereo not drawn) [Compound D46, 5-(4-(2-(2-((2,6-dimethoxy-4-(2-methyl-1-oxo-1,2-dihydro-2,7-naphthyridin-4-yl)benzyl)(methyl)amino)ethoxy)ethyl)piperazin-1-yl)-2-(2,6-dioxopiperidin-3-yl)isoindoline-1,3-dione formic acid], for which the DC50 is less than 10 nM. Consider `COc1cc(-c2cn(C)c(=O)c3cnccc23)cc(OC)c1CN1CCC2(CC1)CN(CCCCCOc1ccc3c(c1)C(=O)N(C1CCC(=O)NC1=O)C3=O)CCO2` (stereo not drawn) [Compound D47, 5-[[5-(9-[[2,6-dimethoxy-4-(2-methyl-1-oxo-2,7-naphthyridin-4-yl)phenyl]methyl]-1-oxa-4,9-diazaspiro[5.5]undecan-4-yl)pentyl]oxy]-2-(2,6-dioxopiperidin-3-yl)isoindole-1,3-dione formic acid], for which the DC50 was less than 10 nM.

Regarding `COc1cc(-c2cn(C)c(=O)c3cnccc23)cc(OC)c1CN1CC2(CC(CCOc3ccc4c(c3)C(=O)N(C3CCC(=O)NC3=O)C4=O)C2)C1` (stereo not drawn) [Compound D48, 5-(2-(2-(2,6-dimethoxy-4-(2-methyl-1-oxo-1,2-dihydro-2,7-naphthyridin-4-yl)benzyl)-2-azaspiro[3.3]heptan-6-yl)ethoxy)-2-(2,6-dioxopiperidin-3-yl)isoindoline-1,3-dione formic acid], the DC50 was in the range of 10 to 100 nM. With `COc1cc(-c2cn(C)c(=O)c3cnccc23)cc(OC)c1CN1CCC2(CC1)CN(CCOc1ccc3c(c1)C(=O)N(C1CCC(=O)NC1=O)C3=O)CCO2` (stereo not drawn) [Compound D49, 5-[2-(9-[[2,6-dimethoxy-4-(2-methyl-1-oxo-2,7-naphthyridin-4-yl)phenyl]methyl]-1-oxa-4,9-diazaspiro[5.5]undecan-4-yl)ethoxy]-2-(2,6-dioxopiperidin-3-yl)isoindole-1,3-dione], the DC50 was greater than 1000 nM. Consider `COc1cc(-c2cn(C)c(=O)c3cnccc23)cc(OC)c1CN1CCC2(CC1)CN(CCCCOc1ccc3c(c1)C(=O)N(C1CCC(=O)NC1=O)C3=O)CCO2` (stereo not drawn) [Compound D50, 5-(4-(9-(2,6-dimethoxy-4-(2-methyl-1-oxo-1,2-dihydro-2,7-naphthyridin-4-yl)benzyl)-1-oxa-4,9-diazaspiro[5.5]undecan-4-yl)butoxy)-2-(2,6-dioxopiperidin-3-yl)isoindoline-1,3-dione], for which the DC50 is less than 10 nM.

`COc1cc(-c2cn(C)c(=O)c3cnccc23)cc(OC)c1CN(C)C1CCN(CCOc2ccc3c(c2)C(=O)N(C2CCC(=O)NC2=O)C3=O)CC1` (stereo not drawn) [Compound D51, 5-[2-[4-([[2,6-dimethoxy-4-(2-methyl-1-oxo-2,7-naphthyridin-4-yl)phenyl]methyl] (methyl)amino)piperidin-1-yl]ethoxy]-2-(2,6-dioxopiperidin-3-yl)isoindole-1,3-dione; formic acid]: the DC50 was less than 10 nM. Take `COc1cc(-c2cn(C)c(=O)c3cnccc23)cc(OC)c1CN1CC(OCc2cn(CCOc3ccc4c(c3)C(=O)N(C3CCC(=O)NC3=O)C4=O)nn2)C1` (stereo not drawn) [Compound D61, 5-(2-(4-(((1-(2,6-dimethoxy-4-(2-methyl-1-oxo-1,2-dihydro-2,7-naphthyridin-4-yl)benzyl)azetidin-3-yl)oxy)methyl)-1H-1,2,3-triazol-1-yl)ethoxy)-2-(2,6-dioxopiperidin-3-yl)isoindoline-1,3-dione]: the DC50 was 10 to 100 nM.
